Experimental data as given in patent US20140378406A1, “SILVER BASED GELS FOR ANTIMICROBIAL APPLICATIONS” (The University of Akron, priority 2012, published 2014).

Experiments:
Assay in all cases: Minimal inhibitory concentration (MIC), CLSI procedures
Type in all cases: cell-based
[1] = tested on: Escherichia coli
Description: (§1) The combination of aqueous solutions of 50 mM glutathione and 50 mM silver carbene complex SCC22 at ambient conditions in a 1:1.25 ratio (final concentration 20 mM glutathione and 25 mM SCC22) results in a colorless hydrogel material. The gel was tested to determine its minimal inhibitory concentration (MIC) on three bacterial species including Pseudomonas aeruginosa, Staphylococcus aureus, and Escherichia coli using procedures published by the Clinical and Laboratory Standards Institute. The combination of aqueous solutions of 50 mM glutathione and 50 mM silver carbene complex SCC1 at ambient conditions in a 1:1.67 ratio (final concentration 15 mM glutathione and 25 mM SCC1) results in a colorless hydrogel material. The gel was tested to determine its minimal inhibitory concentration (MIC) on three bacterial species including Pseudomonas aeruginosa, Staphylococcus aureus, and Escherichia coli using procedures published by the Clinical and Laboratory Standards Institute. The combination of aqueous solutions of 50 mM glutathione and 50 mM silver carbene complex SCC8 at ambient conditions in a 1:1.25 ratio (final concentration 20 mM glutathione and 25 mM SCC8) results in a colorless hydrogel material (GSH8). The gel was tested to determine its minimal inhibitory concentration (MIC) on three bacterial species including Pseudomonas aeruginosa, Staphylococcus aureus, and Escherichia coli using procedures published by the Clinical and Laboratory Standards Institute.

[2] = tested on: Pseudomonas aeruginosa
Description: as §1

[3] = tested on: Staphylococcus aureus
Description: as §1

MIC E. coli [1]: 4 µg/mL
MIC P. aeruginosa [2]: 4 µg/mL
MIC S. aureus [3]: 4 µg/mL
SMILES: NC[C@H]1O[C@H](O[C@H]2[C@H](O)[C@@H](O[C@H]3O[C@H](CO)[C@@H](O)[C@H](N)[C@H]3O)[C@H](N)C[C@@H]2N)[C@H](N)C[C@@H]1O [Tobramycin]
